Entries after “also recorded” stand apart in the source; their conditions may differ. Counter-ions that a name gives are not always drawn. Like-named read-outs stand apart in the source and are kept apart here.
Tests used:
gastric ulcers = conditions: 50 mg/kg oral gavage 45 minutes before; for Frequency of ulcer-bearing rats: combined groups P<0.01
Method: In this method, a relatively large amount of ethanol is administered to rats by oral gavage (1.0 ml/200 gm), a procedure widely used to produce ordinary gastric ulceration. This injection, however, is given in combination with the intraperitoneal injection of heparin sulfate (10 mg/kg).
Compound III treatment was 50 mg/kg by oral garage in distilled water as diluent, at 45 minutes before ulcer induction.
The effects of ethanol alone and ethanol plus Compound III were assessed four hours after ethanol administration. The effects of ethanol plus heparin and ethanol plus heparin plus Compound III were assessed 24 hours after administration of the ulcer inducing combination. Ulcer formation was assessed as discussed in Example 20.
In this and the following examples, the potassium salt of the drug indicated by a Roman numeral was used; i.e., M is potassium (K^+).

rat paw = assay: Post-ischemic reperfusion paw swelling (Example 22); assay type: in vivo, Sprague Dawley male rats; conditions: for % Change as a result of treatment / Paw swelling, Mean ± SE: another study; for Paw swelling, Mean ± SE: i.p. 45 minutes prior; for Post-ischemic reperfusion 30 minute paw swelling, Mn ± SE: P < 0.02
How it was run: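 Male Sprague Dawley rats (240-280 g) were dosed intraperitoneally 45-60 min before a tourniquet was placed on the left hind leg under ether anesthesia. Injury taken as the increase in dorsoventral foot diameter (caliper), mainly 30 min into reperfusion, as mean ± SE, n = 5-6; allopurinol was the reference treatment.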

foot pad = assay: Inflammation provoked by carrageenan injection (Example 25); assay type: in vivo, mice
[1] = test system: gastric submucosal thrombi; assay: Inhibition of gastric submucosal thrombi (Example 30); assay type: in vivo, rat; conditions: 10 mg/kg IV
Method: Thrombosis was induced in rat stomach submucosal blood vessels by the following two-step treatment. First, 1.5 ml of 100 percent ethanol was administered by oral gavage. This produces non-specific injury to tissues and blood vessels of the gastric mucosa. Second, 1.0 mg of adenosine diphosphate (ADP) in 1.0 ml of H2 O, was administered by oral garage 15 minutes after the administration of ethanol. Administration of ADP biases the organ response towards thrombosis by inducing platelet aggregation.
The pathology generated is typically a disseminated pattern of multiple small thrombi, observed on examination of the gastric mucosa, 1-3 hours after ethanol administration. These thrombi are dark red, dilated, thrombosed submucosal blood vessel segments, each being approximately 1 mm thick and 2 to 6 mm long.
In these studies, animals were treated with drug or centrol at one hour prior to ethanol administration. Thrombosis was induced as discussed before, and animals were sacrificed at 1.5 hours after ethanol administration. Focal thrombi were then counted. In this study, n=9-10.

platelet aggregation = assay: Mouse tail bleeding time (Example 31 B); assay type: in vivo
Method: A study of mouse tail bleeding time, which is an in vivo model of platelet aggregation and thrombosis was also conducted. In this widely employed model, bleeding was induced by a standardized transection of the tail tip and subsequent bleeding time was determined after vertical immersion of the tails in isotonic saline at 37° C. for thirty seconds.
Two compounds of the invention, Compound III and Compound VIII, were assessed as compared with aspirin, in another study of mouse tail bleeding time. In this study, the mice were housed in a standard animal room rather than in a noisy small animal isolator. Also, all three drugs were administered by an intraperitoneal route, rather than a subcutaneous route for Compound III and an intraperitoneal route for aspirin.

mouse paw = assay: Mouse paw edema provoked by neutral proteases (Example 32); assay type: in vivo; conditions: two hours; SOD 150 units IV; Compound III 50 mg/kg IP and IV; SOD P<0.05, Compound III P<0.01
Method: Both tryptic activity and collagenase activity are components of the tissue-injuring neutral proteinase activities secreted by neutrophils. Collagenase activity has also been associated with injury to cartilage; and, in another context, with the micro-injury to blood vessels that permits the extravasation and metastasis of, and by, tumor cells.
The effects of Compound III on rat and mouse paw edema as provoked by injection of these enzymes were evaluated. SOD injected IV and Compound III injected IP and IV at zero time, (as in Example 25), inhibited edema at two hours by from 33-40 percent, in both species. […] Both drug effects were significant by t test, SOD at P<0.05 and Compound III at P<0.01.

[2] = Dissolution and buffering of suspensions, HCl titration (Example 16); conditions: HCl titration
Excerpt: (§1) Note that the term "apparent pK" in this context is meant to encompass the maximization of buffering that come both from solid-state dissolution and its titration as solute.

Excerpt for physchem: as §1

SMILES: CC1(C)O[C@H]2O[C@H]([C@@H](COS(=O)(=O)O)OS(=O)(=O)O)[C@H](OS(=O)(=O)O)[C@H]2O1 [Compound III, 1,2-O-(2-Propylidene)-3,5,6-tri-O-sulfo-α-D-glucofuranose, tripotassium salt]
- Frequency of rats with bleeding ulcers (gastric ulcers; ethanol + heparin, 24 hours, P<0.01): 0% of Total in Group
- Frequency of ulcer-bearing rats (gastric ulcers; ethanol + heparin, 24 hours): 25% of Total in Group
- Frequency of rats with bleeding ulcers (gastric ulcers; ethanol, four hours): 0% of Total in Group
- Frequency of ulcer-bearing rats (gastric ulcers; ethanol, four hours): 11% of Total in Group
- % Change as a result of treatment (rat paw; reperfusion time 20 mins., i.p.): -46%
- Paw swelling, Mean ± SE (rat paw; reperfusion time 20 mins., control 8.20 ± 1.02): 4.60 ± 0.40 0.1 mm
- % Change as a result of treatment (rat paw; reperfusion time 30 mins., i.p.): -36%
- Paw swelling, Mean ± SE (rat paw; reperfusion time 30 mins., control 6.60 ± 0.87): 4.20 ± 0.37 0.1 mm
- inhibition of ischemic rat paw edema (rat paw; oral treatment route, after 20 minutes): 44%
- Swelling change as a result of treatment (rat paw; study A, 30 minutes reperfusion, 0.2 mg/kg i.p.): -53%
- Post-ischemic reperfusion 30 minute paw swelling, Mn ± SE (rat paw; study A, Compound III 0.2 mg/kg i.p. 45-60 minutes before tourniquet, control 12.7 ± 0.98): 6.0 ± 0.32 0.1 mm
- Swelling change as a result of treatment (rat paw; study B, 30 minutes, i.p., Compound III 0.2 mg/kg, allopurinol 20 mg/kg): -40%
- Post-ischemic reperfusion 30 minute paw swelling, Mn ± SE (rat paw; study B, i.p., Compound III 0.2 mg/kg, allopurinol 20 mg/kg, control 20.5 ± 0.76): 12.2 ± 0.70 0.1 mm
- Post-ischemic reperfusion 30 minute paw swelling, Mn ± SE (rat paw; study C, 0.2 mg/kg i.p., control 18.4 ± 0.54): 10.2 ± 0.28 0.1 mm
- Swelling change as a result of treatment (rat paw; study C, 30 minutes, 0.2 mg/kg i.p.): -45%
- reduction in swelling (foot pad; subcutaneous, ibuprofen 50 mg/kg, Compound III 30 mg/kg, not significant): 26%
- Swelling Change (foot pad; two hours, SOD 100 units IV, Compound III 50 mg/kg IV + 50 mg/kg IP): -74%
- Foot-Pad Swelling (foot pad; two hours, SOD 100 units IV, Compound III 50 mg/kg IV + 50 mg/kg IP, control 3.8 ± 0.67): 0.82 ± 0.46 0.1 mm
- Drug Effect on thrombi [1]: -62.3%
- Mean Thrombi per Stomach, ±SE ([1]; ethanol + ADP, control 10.60 ± 1.42): 4.00 ± 1.12 per Stomach
- effect on mouse tail bleeding time, in words (platelet aggregation; 50 mg/kg and 150 mg/kg subcutaneously, P<0.05): more than doubled bleeding time
- % Increase in bleeding time (platelet aggregation; 100 mg/kg intraperitoneal): 276%
- Mouse Tail Bleeding Time (platelet aggregation; 100 mg/kg intraperitoneal, control 37.0 ± 5.25): 139.0 ± 22.51 s
- potency relative to aspirin in prolonging mouse tail bleeding time / suppressing platelet aggregation (platelet aggregation; first study: aspirin 75 mg/kg IP, Compound III s.c. or oral, second study: all IP 100 mg/kg, tripotassium salt): equipotent with aspirin (75 mg/kg IP); also recorded: about equipotent with aspirin; also recorded: more effective than aspirin; also recorded: more potent than aspirin in the suppression of platelet aggregation
- inhibition of edema (mouse paw): 33-40%
- pKa (physchem): < 0.5
- buffering action, in words [2]: no buffering power

— patent US5358936A, “Anionic furanose derivatives, methods of making and using the same” (Gordon; Paul, priority 1991, dated 1994)
